Tested on: cardiac myocytes of acutely explanted rabbit heart
Test: Adenovirus gene transfer in Langendorff-perfused explanted rabbit heart; β-galactosidase staining of isolated myocytes
Protocol: Adenovirus vectors. Adβgal contained the E. coli lac Z gene driven by the human cytomegalovirus (CMV) immediate early promoter. Virus stocks were expanded as previously described in Graham F L, Prevec L: Manipulation of adenovirus vectors, in Murray E J (ed): Methods in molecular biology. Clifton, N.J., Humana, 1991, pp 109-128, aliquoted in small volumes, and stored in phosphate-buffered saline (PBS) with 10% sucrose at −80° C. Viral titers were determined by the average of two plaque assays performed using a traditional method as described in Methods in molecular biology, supra.
Statistical Analysis. Unless otherwise stated, all experiments were performed in triplicate and the data are presented as mean ±s.d. Statistical significance was determined at the 5% level using the unpaired Student's t-test.
Baseline conditions for the Langendorff-perfusion experiments included a coronary flow rate of 30 ml/min, and perfusion with Krebs solution containing 1.0 mmol/L Ca^2+ and 1.0×10^8 pfu/ml of Adβgal at 37° C. All infections occurred in Krebs solution.
Acutely explanted rabbit heart (New Zealand White; 2-3 kg total body weight) were employed for gene transfer tests of this Example 1 and the following Example 2. The rabbits received heparin anticoagulation (1000 units IV) prior to pentobarbital (50 mg/kg IV). […]

## NCCc1c[nH]c2ccc(O)cc12 [serotonin]
Agent perfused to enhance microvascular permeability, versus baseline
  change in percentage of infected myocytes by supplemental agent: significant increase
Pretreatment 500 ml normal Krebs with 10^-5 M agent over 15 minutes, agent also present during Adβgal infection
  percentage of infected myocytes: 77.8±2.3%

— patent US7256182B2, “Gene delivery compositions and methods” (priority 1997, dated 2007)
